According to patent publication US20230293511A1, “Ophthalmic Compositions and Uses Thereof” (priority 2022, published 2023):
Where two headings read alike, the source gives them in different places.

Tested on: patients with Fuchs Corneal Dystrophy (corneal edema)
Type: in vivo, human
Conditions: for BCVA (best corrected visual acuity) improvement: netarsudil QD
Excerpt: FIG. 1 is a graphic representation of the study described in Example 6.
A Randomized, Open-Label, Parallel-Group Study of Two Dosing Regimens of Netarsudil in Patients with Fuchs Corneal Dystrophy
Fuchs Corneal Dystrophy (FCD) is a slowly progressive corneal disease, and is the most common indication for corneal transplants worldwide. A typical patient presents with blurred vision, glare, and a hazy cornea from corneal edema. The only definitive treatment option to restore vision is surgery. There is a large unmet need for pharmacologic alternatives to surgery
Purpose of this study: evaluate the therapeutic potential of two dosing regimens of netarsudil, a Rho kinase inhibitor, to reduce corneal edema and improve visual acuity in patients with FCD. […] Complete resolution of edema in 12.5% of patients at Week 4 (BID+QD) (FIG. 2). • d. 25% of patients gained letters from baseline in BCVA at Week 4 (BID+QD) (FIG. 4). • e. […] Improvements in validated patient reported outcome questionnaire shown at all timepoints with netarsudil QD dosing (FIG. 5). • g. […] Most common ocular TEAE was hyperemia accounting for 3/9 and 6/17 total ocular TEAE in the QD and BID groups, respectively. • i. Reticular edema developed in 1 patient in BID group, which resolved with treatment discontinuation.

For Cc1ccc(C(=O)OCc2ccc([C@@H](CN)C(=O)Nc3ccc4cnccc4c3)cc2)c(C)c1 [netarsudil, Netarsudil], which reticular edema developed (human, in vivo) is on record?
Its reticular edema developed is 1 patient.

And the tolerability (human, in vivo)?
Its tolerability is “well tolerated”.

And the “BCVA (best corrected visual acuity) improvement” value (week 2)?
Its value is 5.0 letters.

And the “BCVA (best corrected visual acuity) improvement” value (week 4)?
Its value is 3.2 letters.

What about the “patients with complete resolution of edema” value (week 4, BID+QD) of the same compound?
The value was 12.5%.

What about the “patients who gained letters from baseline in BCVA” value (week 4, overall (BID+QD)) of the same compound?
Its value is 25%.
